Data from US7186831B2, “5-halo-2-alkyl[1,2,4]triazolo[1,5-a]pyrimidin-7-amines” (priority 2001, dated 2007).

test: log P by HPLC; type: physicochemical; conditions: EEC directive 79/831 Annex V. A8 by HPLC (gradient method, acetonitrile/0.1% aqueous phosphoric acid)

logP | Structure (SMILES)
3.39 | CCN(Cc1ccco1)c1c(-c2ccc(F)cc2F)c(Cl)nc2nc(C)nn12 [compound 354]
4.01 | Cc1nc2nc(Cl)c(-c3ccc(F)cc3F)c(N3CCC(C)(C)CC3)n2n1 [compound 288]
3.04 | COC(=O)C1CCCCN1c1c(-c2c(F)cccc2F)c(Cl)nc2nc(C)nn12 (stereo not drawn) [compound 320]
3.49 | Cc1nc2nc(Cl)c(-c3ccc(F)cc3F)c(N3CCC(C(F)(F)F)CC3)n2n1 [compound 293]
3.28 | Cc1nc2nc(Cl)c(-c3ccccc3F)c(NOCc3cccc(Cl)c3)n2n1 [compound 367]
2.34 | Cc1nc2nc(Cl)c(-c3ccccc3F)c(N(C)C)n2n1 [compound 381]
3.33 | Cc1nc2nc(Cl)c(-c3c(F)cccc3F)c(N3CCC(Br)CC3)n2n1 [compound 319]
3.44 | Cc1nc2nc(Cl)c(-c3c(F)cccc3F)c(NOCc3ccc(C(F)(F)F)cc3)n2n1 [compound 430]
3.34 | Cc1nc2nc(Cl)c(-c3c(F)cccc3F)c(NC(C)(C)C(F)(F)F)n2n1 [compound 421]
3.04 | CCOC(=O)CN(CC)c1c(-c2ccc(F)cc2F)c(Cl)nc2nc(C)nn12 [compound 355]
1.23 | Cc1nc2nc(Cl)c(-c3ccc(F)cc3F)c(N(C)CCN(C)C)n2n1 [compound 350]
3.27 | Cc1nc2nc(Cl)c(-c3c(F)cccc3F)c(NCC(C)(C)C)n2n1 [compound 329]
3.51 | C[C@H](Nc1c(-c2ccc(F)cc2F)c(Cl)nc2nc(C3CC3)nn12)C(F)(F)F (single isomer, unassigned) [compound 489]
1.37 | CCN(CCN(C)C)c1c(-c2ccc(F)cc2F)c(Cl)nc2nc(C)nn12 [compound 353]
2.96 | CCCCONc1c(-c2c(F)cccc2F)c(Cl)nc2nc(C)nn12 [compound 434]
3.76 | CCC(C)Nc1c(-c2ccccc2Cl)c(Cl)nc2nc(C3CC3)nn12 (stereo not drawn) [compound 494]

logP | Structure (SMILES)
2.53 | CC(=O)CC(C)(C)Nc1c(-c2ccc(F)cc2F)c(Cl)nc2nc(C)nn12 [compound 407]
3.69 | CCC(C)Nc1c(-c2c(F)cc(F)cc2F)c(Cl)nc2nc(C3CC3)nn12 (stereo not drawn) [compound 462]
3.32 | Cc1nc2nc(Cl)c(-c3ccc(F)cc3F)c(N3CCCCC3)n2n1 [compound 295]
3.63 | C=C(C)CN(C)c1c(-c2c(F)cccc2Cl)c(Cl)nc2nc(C)nn12 [compound 275]
4.66 | CC1CCN(c2c(-c3c(F)cc(F)cc3F)c(Cl)nc3nc(C4CC4)nn23)CC1 [compound 473]
2.03 | CNc1c(-c2c(F)cccc2F)c(Cl)nc2nc(C)nn12 [compound 422]
2.48 | CCOC(=O)CN(C)c1c(-c2c(F)cccc2Cl)c(Cl)nc2nc(C)nn12 [compound 272]
3.82 | CCCCN(CC)c1c(-c2c(F)cccc2F)c(Cl)nc2nc(C)nn12 [compound 344]
3.28 | CCN(Cc1ccco1)c1c(-c2c(F)cccc2F)c(Cl)nc2nc(C)nn12 [compound 340]
4.27 | Clc1ccccc1-c1c(Cl)nc2nc(C3CC3)nn2c1N1CCCCC1 [compound 493]
2.89 | Cc1cccc(Nc2c(-c3c(F)cccc3F)c(Cl)nc3nc(C)nn23)c1 [compound 326]
2.28 | CCONc1c(-c2ccccc2F)c(Cl)nc2nc(C)nn12 [compound 362]
2.97 | Cc1nc2nc(F)c(-c3ccccc3Cl)c(NC(C)C(F)(F)F)n2n1 (stereo not drawn) [compound 438]
3.26 | Cc1nc2nc(Cl)c(-c3c(F)cccc3Cl)c(N(C)Cc3ccco3)n2n1 [compound 274]
1.85 | CC(=O)NC1CCN(c2c(-c3ccc(F)cc3F)c(Cl)nc3nc(C)nn23)CC1 [compound 294]
2.96 | Cc1nc2nc(Cl)c(-c3ccc(F)cc3F)c(NC(C)C(F)(F)F)n2n1 (single isomer, unassigned) [compound 360]

same assay, conditions: HPLC

chromatographic logP | Structure (SMILES)
0.81 | Oc1nc2nc(C(F)(F)F)nn2c(O)c1-c1c(F)cc(F)cc1F [Example 832, 2-trifluoromethyl-6-(2,4,6-trifluoro-phenyl)-[1,2,4]triazolo[1,5-a]pyrimidine-5,7-diol]

same assay, conditions: HPLC, gradient method, acetonitrile/0.1% aqueous phosphoric acid; EEC directive 79/831 Annex V. A8

logP | Structure (SMILES)
4.1 | CC1CN(c2c(-c3ccc(F)cc3F)c(Cl)nc3nc(C(F)(F)F)nn23)CC(C)O1 (stereo not drawn) [compound 808]
3.96 | C=CCN(CC)c1c(-c2ccc(F)cc2F)c(Cl)nc2nc(C3CC3)nn12 [compound 591]
4.04 | Cc1cccc(Nc2c(-c3ccc(F)cc3F)c(Cl)nc3nc(C(F)(F)F)nn23)c1 [compound 812]
4.6 | CC1CCCCN1c1c(-c2c(F)cc(F)cc2F)c(Cl)nc2nc(C3CC3)nn12 (stereo not drawn) [compound 674]
2.98 | CCN(CC)c1c(-c2c(F)cccc2F)c(Cl)nc2nc(C)nn12 [compound 175]
4.84 | CC(Nc1c(-c2ccc(F)cc2F)c(Cl)nc2nc(C3CC3)nn12)C1CCCCC1 (stereo not drawn) [compound 653]
2.42 | COCCNc1c(-c2c(F)cccc2Cl)c(Cl)nc2nc(C)nn12 [compound 257]
3.16 | COCCN(C)c1c(-c2ccc(F)cc2F)c(Cl)nc2nc(C3CC3)nn12 [compound 669]
3.04 | CCCCNc1c(-c2ccc(F)cc2F)c(Cl)nc2nc(C)nn12 [compound 192]
1.67 | CN(C)C1CCN(c2c(-c3ccc(F)cc3F)c(Cl)nc3nc(C(F)(F)F)nn23)C1 (stereo not drawn) [compound 795]
2.93 | Cc1nc2nc(Cl)c(-c3c(F)cc(F)cc3F)c(N3OCCC3C)n2n1 (stereo not drawn) [compound 585]
2.7 | Cc1nc2nc(Cl)c(-c3c(F)cc(F)cc3F)c(NNC(C)C)n2n1 [compound 28]
3.56 | Fc1ccc(-c2c(Cl)nc3nc(C4CC4)nn3c2N2CCCCO2)c(F)c1 [compound 690]
4.43 | Fc1ccc(-c2c(Cl)nc3nc(C(F)(F)F)nn3c2N2CCC(C(F)(F)F)CC2)c(F)c1 [compound 805]
3.3 | C=CCN(CC)c1c(-c2c(F)cccc2F)c(Cl)nc2nc(C)nn12 [compound 568]
1.47 | CCN(CCN)c1c(-c2ccc(F)cc2F)c(Cl)nc2nc(C3CC3)nn12 [compound 724]
4.56 | C=C(C)CN(CC)c1c(-c2ccc(Cl)cc2Cl)c(Cl)nc2nc(C)nn12 [compound 783]
3.61 | Cc1cccc(Nc2c(-c3ccc(F)cc3F)c(Cl)nc3nc(C4CC4)nn23)c1 [compound 737]
2.84 | Cc1nc2nc(Cl)c(-c3c(F)cccc3F)c(N3CC(C)OC(C)C3)n2n1 (stereo not drawn) [compound 169]
3.57 | CCc1nc2nc(Cl)c(-c3c(F)cc(F)cc3F)c(N3CC(C)OC(C)C3)n2n1 (stereo not drawn) [compound 71]
1.56 | CN(C)CCN(C)c1c(-c2ccc(F)cc2F)c(Cl)nc2nc(C3CC3)nn12 [compound 661]
4.13 | Fc1ccc(-c2c(Cl)nc3nc(C4CC4)nn3c2NC2CCCC2)c(Cl)c1 [compound 624]
4.36 | CC(C)CN(N)c1c(-c2ccc(Cl)cc2Cl)c(Cl)nc2nc(C3CC3)nn12 [compound 750]
3.5 | C=CCN(CC)c1c(-c2c(F)cc(F)cc2F)c(Cl)nc2nc(C)nn12 [compound 157]

logP | Structure (SMILES)
2.78 | Fc1cccc(F)c1-c1c(Cl)nc2nc(C3CC3)nn2c1N1CCOCC1 [compound 683]
2.72 | C=C(C)CNc1c(-c2ccc(F)cc2F)c(Cl)nc2nc(C)nn12 [compound 201]
3.94 | CC1CCCN1c1c(-c2c(F)cccc2Cl)c(Cl)nc2nc(C3CC3)nn12 (stereo not drawn) [compound 702]
3.55 | Cc1nc2nc(Cl)c(-c3c(F)cccc3Cl)c(N3CCCCC3)n2n1 [compound 254]
3.76 | Fc1ccc(-c2c(Cl)nc3nc(C4CC4)nn3c2NC2CCCC2)c(F)c1 [compound 650]
3.22 | Fc1ccc(-c2c(Cl)nc3nc(C4CC4)nn3c2N2CCC3(CC2)OCCO3)c(F)c1 [compound 609]
4.37 | CC(C)(C)CNc1c(-c2ccc(F)cc2Cl)c(Cl)nc2nc(C3CC3)nn12 [compound 622]
3.99 | Cc1ccccc1Nc1c(-c2ccc(F)cc2F)c(Cl)nc2nc(C(F)(F)F)nn12 [compound 811]
3.27 | Fc1ccc(Nc2c(-c3ccc(F)cc3F)c(Cl)nc3nc(C4CC4)nn23)cc1 [compound 738]
2.8 | CCc1nc2nc(Cl)c(-c3c(F)cc(F)cc3F)c(N3CCOCC3)n2n1 [compound 92]
3.18 | CCc1nc2nc(Cl)c(-c3c(F)cc(F)cc3F)c(NCCC(F)(F)F)n2n1 [compound 6]
4.19 | CC(Nc1c(-c2ccc(Cl)cc2Cl)c(Cl)nc2nc(C3CC3)nn12)C(F)(F)F (single isomer, unassigned) [compound 711]
3.36 | Fc1ccc(-c2c(Cl)nc3nc(C4CC4)nn3c2N2CCCC2)c(F)c1 [compound 606]
4.09 | C=CCN(C)c1c(-c2ccc(F)cc2F)c(Cl)nc2nc(C(F)(F)F)nn12 [compound 541]
3.2 | Cc1nc2nc(Cl)c(-c3c(F)cc(F)cc3F)c(N3CC=CCC3)n2n1 [compound 83]
3.75 | C=C(C)CNc1c(-c2ccc(F)cc2F)c(Cl)nc2nc(C(F)(F)F)nn12 [compound 534]
3.89 | Fc1cc(F)c(-c2c(Cl)nc3nc(C(F)(F)F)nn3c2NCC2CC2)c(F)c1 [compound 111]
3.57 | CCC(C)Nc1c(-c2ccc(F)cc2F)c(Cl)nc2nc(C3CC3)nn12 (stereo not drawn) [compound 647]
3.1 | CN(CC1OCCO1)c1c(-c2ccc(F)cc2F)c(Cl)nc2nc(C3CC3)nn12 [compound 663]
1.61 | CCCN(CCCN)c1c(-c2ccc(F)cc2F)c(Cl)nc2nc(C3CC3)nn12 [compound 726]
2.86 | Cc1nc2nc(Cl)c(-c3c(F)cc(F)cc3F)c(N3CCCC3)n2n1 [compound 59]
4.08 | Fc1ccc(-c2c(Cl)nc3nc(C4CC4)nn3c2N2CCC(Br)CC2)c(F)c1 [compound 732]
4.24 | Cc1nc2nc(Cl)c(-c3ccc(F)cc3F)c(NC(C)C3CCCCC3)n2n1 (stereo not drawn) [compound 198]
2.77 | Cc1nc2nc(Cl)c(-c3c(F)cccc3Cl)c(NC(C)C)n2n1 [compound 256]
